Where no end group is shown, it is not given here.
Tested on: 19.6.47 T cells
Assay: Proliferation reaction of isolated T cell clone with cedar pollen antigen and synthetic peptide
Type: cell-based, human
Settings: radiated (45 Gy) PBMC; FIG. 5
Procedure: Purified Cry j I protein (closed bar: 50 μg/ml, hatched bar: […], and open bar: 0.5 μg/ml), Cry j I p301–321 (closed bar: 250 μM, hatched bar: 25 μM, and open bar: 2.5 μM), and irrelevant (irrelevant peptide: […](SEQ ID NO: 3)).
The donor of 19.6.47 T cells suffered from hay fever of Japanese cedar pollen and said T cells were established during heavy pollination season. In this respect, a major allergen of Japanese cedar pollen (Cryptomeria japonica I; Cry j I) among the three non-autologous peptides shown in Table 3 was considered to be a possible peptide ligand recognized by said T cell clone. Thus, a synthetic peptide Cry j I p301–321 ([…](SEQ ID NO: 4)) and purified Cry j I protein were examined for their reactivity with the 19.6.47 T cells. A major allergen of Japanese cedar (Cryptomeria japonica) pollen was purified as described in Matsushita, S. et al., J. Immunol., 1987, 138: 109–115.
The 19.6.47 T cells were cultured with radiated (45 Gy) PBMC either in the presence of purified Cry j I protein ([…]), Cry j I p301–321 peptide ([…]) or irrelevant peptide.

DVFYNGAYFVSSGKYEGGNIY (SEQ ID NO: 4) [Cry j I p301–321]
reactivity with the 19.6.47 T cells (proliferation): reacted

B1: purified Cry j I protein: purified major allergen of Japanese cedar (Cryptomeria japonica) pollen (protein)
chain: DNPIDSCWRGDSNWAQNRMKLADCAVGFGSSTMGGKGGDLYTVTNSDDDPVNPAPGTLRYGATRDRPLWIIFSGNMNIKLKMPMYIAGYKTFDGRGAQVYIGNGGPCVFIKRVSNVIIHGLYLYGCSTSVLGNVLINESFGVEPVHPQDGDALTLRTATNIWIDHNSFSNSSDGLVDVTLTSTGVTISNNLFFNHHKVMLLGHDDAYSDDKSMKVTVAFNQFGPNCGQRMPRARYGLVHVANNNYDPWTIYAIGGSSNPTILSEGNSFTAPNESYKKQVTIRIGCKTSSSCSNWVWQSTQDVFYNGAYFVSSGKYEGGNIYTKKEAFNVENGNATPQLTKNAGVLTCSLSKRC
reactivity with the 19.6.47 T cells (proliferation): reacted
